According to patent publication US8119681B2, “2-[1-phenyl-5-hydroxy or methoxy-4alpha-methyl-hexahydrocyclopenta [ƒ]indazole-5-YL]ethyl phenyl derivatives as glucocorticoid receptor ligands” (Merck Sharp & Dohme Corp., priority 2006, dated 2012):

biological target: T1, human GR (Homo sapiens, UniProt P04150); assay: Transrepression Assay (GITAR), TNFα-β-lactamase reporter gene in U937 cells; format: cell-based; set-up: U937 cells contain an endogenous glucocorticoid receptor (GR); endogenous in cells; host or cells: U937 cells stably transfected with the TNF-α promoter/β-lactamase reporter only; settings: U-937, read-out: maximal activity in the transrepression assay
T1 sequence (P04150 1-777): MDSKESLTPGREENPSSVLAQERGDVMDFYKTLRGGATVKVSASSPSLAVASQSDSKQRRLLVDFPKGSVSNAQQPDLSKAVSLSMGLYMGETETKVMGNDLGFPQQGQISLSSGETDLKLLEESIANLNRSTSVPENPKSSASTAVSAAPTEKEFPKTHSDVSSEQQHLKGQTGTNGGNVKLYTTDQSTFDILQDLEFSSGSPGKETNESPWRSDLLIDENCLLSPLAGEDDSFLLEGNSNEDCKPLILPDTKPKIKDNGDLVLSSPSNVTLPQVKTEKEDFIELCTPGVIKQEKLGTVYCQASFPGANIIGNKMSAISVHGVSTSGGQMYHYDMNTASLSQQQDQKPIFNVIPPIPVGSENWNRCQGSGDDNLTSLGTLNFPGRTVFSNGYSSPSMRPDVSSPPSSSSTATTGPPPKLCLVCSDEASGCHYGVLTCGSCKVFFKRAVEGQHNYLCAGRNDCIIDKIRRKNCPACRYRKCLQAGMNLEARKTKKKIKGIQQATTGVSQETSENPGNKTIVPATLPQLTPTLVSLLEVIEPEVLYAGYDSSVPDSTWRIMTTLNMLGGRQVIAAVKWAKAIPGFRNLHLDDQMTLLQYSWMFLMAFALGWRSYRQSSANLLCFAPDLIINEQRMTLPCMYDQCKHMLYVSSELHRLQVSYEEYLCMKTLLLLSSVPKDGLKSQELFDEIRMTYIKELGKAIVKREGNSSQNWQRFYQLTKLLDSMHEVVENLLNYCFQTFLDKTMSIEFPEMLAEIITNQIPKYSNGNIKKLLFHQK
Description: Transrepression Assay (GITAR)
This assay assesses the ability of test compounds to control transcription from the TNFα-β-lactamase reporter gene in U937 cells, a human myelomonocytic leukemia cell line that naturally expresses the human GR. The assay measures compound dependent-repression of the TNFa promoter linked to a reporter gene.
The human U937 cells that had been stably transfected with the TNF-α promoter driving β-lactamase are used for this assay. U937 cells contain an endogenous glucocorticoid receptor (GR). […] 50,000 cells/well are plated in 96 well black-walled plates the day of assay. Test compounds are added 10 μL/well, and cells are incubated at 37° C. for 30˜45 min. For assaying compounds, first dilute 1:10 in DMSO to make 1 mM, then further dilute 1:100 in medium to make 10× stock prior to adding to the cells. Add 50 ng/ml PMA (Sigma, cat# P8139) 10 μL/well to a final concentration 5 ng/ml, and 1 μg/ml LPS (Sigma, cat# L4130) 10 μL/well to a final concentration 100 ng/ml. Incubate cells at 370 C overnight for ˜18 hr. PMA is stored frozen as 100 μg/ml stock in DMSO. Dilute 1:10 in DMSO for a working stock of 10 μg/ml and store at −20 C. For assaying, dilute the 10 μg/ml working stock 1:200 in medium to make a 10× solution (50 ng/ml). Store frozen LPS at 1 mg/ml in PBS, dilute 1:1000 in medium to make 10× (1 μg/ml) for the assay. Add 6× loading buffer (CCF2-AM) 20 μL/well, and incubate at room temperature for 70˜90 min. […] The activity repressed by 100 nM dexamethasone alone is set as 100% activity.

Compound | Emax
CCNC(=O)Oc1ccccc1CC[C@]1(O)CCC2=Cc3c(cnn3-c3ccc(F)cc3)C[C@@]21C [Example 18, 2-{2-[(4αS,5R)-1-(4-fluorophenyl)-5-hydroxy-4α-methyl-1,4,4α,5,6,7-hexahydrocyclopenta[f]indazol-5-yl]ethyl}phenyl ethylcarbamate] | 5 to 100%

same assay, conditions: U-937; 100 nM dexamethasone = 100% activity; read-out: maximal activity in the transrepression assay

Compound | Emax
C[C@]12Cc3cnn(-c4ccc(F)cc4)c3C=C1CC[C@@]2(O)CCc1ccccc1C(=O)O [Example 1, 2-{2-[(4αS,5R)-1-(4-Fluorophenyl)-5-hydroxy-4α-methyl-1,4,4α,5,6,7-hexahydrocyclopenta[f]indazol-5-yl]ethyl}benzoic acid] | 5 to 100%
C[C@]12Cc3cnn(-c4ccc(F)cc4)c3C=C1CC[C@@]2(O)CCc1ccccc1CNC(=O)C1CC1 [Example 4] | 5 to 100%
CCOC(=O)NCc1ccccc1CC[C@]1(O)CCC2=Cc3c(cnn3-c3ccc(F)cc3)C[C@@]21C [Example 6, Ethyl(2-(2-[(4αS,5R)-1-(4-fluorophenyl)-5-hydroxy-4α-methyl-1,4,4α,5,6,7-hexahydrocyclopenta(f)indazol-5-yl]ethyl)benzyl)carbamate] | 5 to 100%
C[C@]12Cc3cnn(-c4ccc(F)cc4)c3C=C1CC[C@@]2(O)CCc1ccccc1C1(NS(=O)(=O)C2CC2)CC1 [Example 7, N-[1-(2-{2-[(4αS,5R)-1-(4-Fluorophenyl)-5-hydroxy-4α-methyl-1,4,4α,5,6,7-hexahydrocyclopenta[f]indazol-5-yl]ethyl}phenyl)cyclopropyl]cyclopropanesulfonamide] | 5 to 100%
C[C@@H](NS(=O)(=O)C1CC1)c1ccccc1CC[C@]1(O)CCC2=Cc3c(cnn3-c3ccc(F)cc3)C[C@@]21C [Example 8, N-[(1R)-1-(2-{2-[(4αS,5R)-1-(4-Fluorophenyl)-5-hydroxy-4α-methyl-1,4,4α,5,6,7-hexahydrocyclopenta[f]indazol-5-yl]ethyl}phenyl)ethyl]cyclopropanesulfonamide] | 5 to 100%
CCNC(=O)OCc1ccccc1CC[C@]1(O)CCC2=Cc3c(cnn3-c3ccc(F)cc3)C[C@@]21C [Example 9] | 5 to 100%
C[C@]12Cc3cnn(-c4ccc(F)cc4)c3C=C1CC[C@@]2(O)CCc1ccccc1-c1ccc(F)nc1 [Example 10, (4αS,5R)-1-(4-fluorophenyl)-5-{2-[2-(6-fluoropyridin-3-yl)phenyl]ethyl}-4α-methyl-1,4,4α,5,6,7-hexahydrocyclopenta[f]indazol-5-ol] | 5 to 100%
CCOC(=O)Nc1ccccc1CC[C@]1(O)CCC2=Cc3c(cnn3-c3ccc(F)cc3)C[C@@]21C [Example 12, ethyl (2-{2-[(4αS,5R)-1-(4-fluorophenyl)-5-hydroxy-4α-methyl-1,4,4α,5,6,7-hexahydrocyclopenta[f]indazol-5-yl]ethyl}phenyl)carbamate] | 5 to 100%
CCNC(=O)Nc1ccccc1CC[C@]1(O)CCC2=Cc3c(cnn3-c3ccc(F)cc3)C[C@@]21C [Example 13, N-ethyl-N′-(2-{2-[(4αS,5R)-1-(4-fluorophenyl)-5-hydroxy-4α-methyl-1,4,4α,5,6,7-hexahydrocyclopenta[f]indazol-5-yl]ethyl}phenyl)urea] | 5 to 100%
C[C@]12Cc3cnn(-c4ccc(F)cc4)c3C=C1CC[C@@]2(O)CCc1ccccc1O [Example 16, (4αS,5R)-1-(4-fluorophenyl)-5-[2-(2-hydroxyphenyl)ethyl]-4α-methyl-1,4,4α,5,6,7-hexahydrocyclopenta[f]indazol-5-ol] | 5 to 100%
CCOC(=O)Oc1ccccc1CC[C@]1(O)CCC2=Cc3c(cnn3-c3ccc(F)cc3)C[C@@]21C [Example 17, Ethyl-(2-(2-[(4αS,5R)-1-(4-fluorophenyl)-5-hydroxy-4α-methyl-1,4,4α,5,6,7-hexahydrocyclopenta(f)indazol-5-yl]ethyl)phenyl)carbonate] | 5 to 100%
C[C@]12Cc3cnn(-c4ccc(F)cc4)c3C=C1CC[C@@]2(O)CCc1ccccc1C#N [Example 20, 2-{2-[(4αS,5R)-1-(4-fluorophenyl)-5-hydroxy-4α-methyl-1,4,4α,5,6,7-hexahydrocyclopenta[f]indazol-5-yl]ethyl}benzonitrile] | 5 to 100%
C[C@]12Cc3cnn(-c4ccc(F)cc4)c3C=C1CC[C@@]2(O)CCc1ccccc1C=O [Example 21, 2-{2-[(4αS,5R)-1-(4-Fluorophenyl)-5-hydroxy-4α-methyl-1,4,4α,5,6,7-hexahydrocyclopenta[f]indazol-5-yl]ethyl}benzaldehyde] | 5 to 100%
C[C@]12Cc3cnn(-c4ccc(F)cc4)c3C=C1CC[C@@]2(O)CCc1ccccc1S(N)(=O)=O [Example 22, 2-{2-[(4αS,5R)-1-(4-fluorophenyl)-5-hydroxy-4α-methyl-1,4,4α,5,6,7-hexahydrocyclopenta[f]indazol-5-yl]ethyl}benzenesulfonamide] | 5 to 100%
CCOC1(OCC)CN(C(=O)c2ccccc2CC[C@]2(O)CCC3=Cc4c(cnn4-c4ccc(F)cc4)C[C@@]32C)C1 [Example 24, (4αS,5R)-5-(2-{2-[(3,3-diethoxyazetidin-1-yl)carbonyl]phenyl}ethyl)-1-(4-fluorophenyl)-4α-methyl-1,4,4α,5,6,7-hexahydrocyclopenta[f]indazol-5-ol] | 5 to 100%
CC(C)(C)CNC(=O)c1ccccc1CC[C@]1(O)CCC2=Cc3c(cnn3-c3ccc(F)cc3)C[C@@]21C [Example 25, N-(2,2-dimethylpropyl)-2-{2-[(4αS,5R)-1-(4-fluorophenyl)-5-hydroxy-4α-methyl-1,4,4α,5,6,7-hexahydrocyclopenta[f]indazol-5-yl]ethyl}benzamide] | 5 to 100%
CCNC(=O)c1ccccc1CC[C@]1(O)CCC2=Cc3c(cnn3-c3ccccc3)C[C@@]21C [Example 27, N-ethyl-2-{2-[(4αS,5R)-5-hydroxy-4α-methyl-1-phenyl-1,4,4α,5,6,7-hexahydrocyclopenta[f]indazol-5-yl]ethyl}benzamide] | 5 to 100%
CCNC(=O)c1ccccc1CC[C@]1(O)CCC2=Cc3c(cnn3-c3cccc(F)c3)C[C@@]21C [Example 36, N-ethyl-2-{2-[(4αS,5R)-1-(3-fluorophenyl)-5-hydroxy-4α-methyl-1,4,4α,5,6,7-hexahydrocyclopenta[f]indazol-5-yl]ethyl}benzamide] | 5 to 100%
CC1(NC(=O)c2ccccc2CC[C@]2(O)CCC3=Cc4c(cnn4-c4ccc(F)c(F)c4)C[C@@]32C)CC1 [Example 39, 2-{2-[(4αS,5R)-1-(3,4-difluorophenyl)-5-hydroxy-4α-methyl-1,4,4α,5,6,7-hexahydrocyclopenta[f]indazol-5-yl]ethyl}-N-(1-methylcyclopropyl)benzamide] | 5 to 100%
C=CCN(C)C(=O)c1ccccc1CC[C@]1(O)CCC2=Cc3c(cnn3-c3ccc(F)cc3)C[C@@]21C [Example 50, N-allyl-2-{2-[(4αS,5R)-1-(4-fluorophenyl)-5-hydroxy-4α-methyl-1,4,4α,5,6,7-hexahydrocyclopenta[f]indazol-5-yl]ethyl}-N-methylbenzamide] | 5 to 100%
C=C(F)CNC(=O)c1ccccc1CC[C@]1(O)CCC2=Cc3c(cnn3-c3ccc(F)cc3)C[C@@]21C [Example 53, 2-{2-[(4αS,5R)-1-(4-fluorophenyl)-5-hydroxy-4α-methyl-1,4,4α,5,6,7-hexahydrocyclopenta[f]indazol-5-yl]ethyl}-N-(2-fluoroprop-2-en-1-yl)benzamide] | 5 to 100%
C[C@]12Cc3cnn(-c4ccc(F)cc4)c3C=C1CC[C@@]2(O)CCc1ccccc1C(=O)N1CC[C@H](F)C1 [Example 54, (4αS,5R)-1-(4-fluorophenyl)-5-[2-(2-{[(3S)-3-fluoropyrrolidin-1-yl]carbonyl}phenyl)ethyl]-4α-methyl-1,4,4α,5,6,7-hexahydrocyclopenta[f]indazol-5-ol] | 5 to 100%
